# Measurements as given in US12616688B2, “Cell glycocalyx protection effect of anisodamine” (priority 2020, dated 2026).
# What was measured:
# Type in all cases: cell-based, human
# hCMEC/D3 cell [1] = experiment: NO production assay
# Description: 4.1 Experimental Groups: Which were the Same as in Example 2.
# A cell was pre-cooled with PBS, then ultrasonically disrupted and homogenized, and centrifuged at 16,000 g and 4° C. for 20 min, a resulting supernatant was collected, and a NO detection kit (Nanjing Jiancheng Institute of Biological Engineering A012) was used to determine the absorbance at 550 nm, thereby determining an NO level.
# hCMEC/D3 cell [2] = experiment: CCK-8 cell proliferation assay; details: under 50 μg/mL LPS, 24 h
# Description: Immortalized HBMVEC hCMEC/D3 was taken from the Beijing Beina Chuanglian Biotechnology Institute (BNBIO) in China. The hCMEC/D3 endothelial cell was cultivated with an endothelial cell culture medium (ECM; cat.1001, Sciencell, USA) at 37° C. and 5% CO2. Anisodamine hydrobromide was taken from the Chengdu First Pharmaceutical Co., Ltd., Chengdu, China. Anisodamine hydrobromide was dissolved in distilled water at 20 mg/mL, then a resulting solution was filtered through a 0.22 μm filter membrane, and anisodamine hydrobromide solutions with final concentrations of 10 μg/mL, 20 μg/mL, 40 μg/mL, and 80 μg/mL each were prepared with ECM. LPS was dissolved in distilled water at 2 mg/mL, and LPS solutions with concentrations of 1 μg/mL, 10 μg/mL, 20 μg/mL, 50 μg/mL, and 100 μg/mL each were prepared with ECM. The hCMEC/D3 cell was treated with LPS and anisodamine hydrobromide.
# The cell proliferation was assayed by the CCK-8 method (C0042, Beyotime, China). 2,000 cells were inoculated into a 96-well plate, cultivated for 24 h, and then treated with LPS and anisodamine hydrobromide; and before the end of the experiment, a CCK8 assay solution was added, the plate was incubated for 1 h, and then the absorbance at 450 nm was determined by a microplate reader (Labsery K3 Touch, Thermo Fisher, USA).
# hCMEC/D3 barrier = experiment: Endothelial permeability assay (Transwell, FITC-dextran leakage); details: for LPS-induced permeability relative to control group: 24 h
# Description: 3.1 Experimental Groups: Which were the Same as in Example 2.
# A cell (5×10^4 in 200 μL ECM) was inoculated into an upper well of Transwell (0.4 μm, Corning, USA), and 200 μL of ECM was added to a lower well; the Transwell was incubated for 3 d in a 37° C. and 5% CO2 incubator until a cell confluency was 90%; a medium in the upper well was replaced with 50 μg/mL LPS or anisodamine hydrobromide (10 μg/mL or 20 μg/mL)-free fresh ECM, and a medium in the lower well was replaced with fresh ECM; 24 h later, 10 μL of fluorescein isothiocyanate (FITC)-dextran (40 kDa; Cat. 46944, Sigma-Aldrich, USA) was added to the upper well; 40 min later, 100 μL of a medium was taken from the lower well, and fluorescence values at 490 nm and 525 nm were determined; and a leakage amount of FITC-dextran was calculated to assess the permeability of an endothelial cell layer.
# [3] = test system: glycocalyx HS and cadherin of hCMEC/D3 cell; experiment: Immunofluorescence staining and confocal microscopy of HS and cadherin
# Description: 2.1 Experimental Groups: Normal Control Group, LPS Treatment Group (50 μg/mL), Low-Concentration Administration Group (LPS 50 μg/mL+Anisodamine Hydrobromide 10 μg/mL), and High-Concentration Administration Group (LPS 50 μg/mL+Anisodamine Hydrobromide 20 μg/mL). 2.2 Immunofluorescence Staining and Confocal Microscopy
# A cell was fixed and penetrated, then blocked with 2% goat serum, and labeled with a murine HS monoclonal antibody (mAb) (1:100, 10E4 epitope, AMS Biotechnology, UK), a rabbit cadherin polyclonal antibody (pAb) (1:100, A0734, Abclonal, China), an Alexa Fluor 488 goat anti-murine (1:400, A11001, Thermo Fisher) secondary antibody, and an Alexa Fluor 568 donkey anti-rabbit (1:400, A10042, Thermo Fisher) secondary antibody. The cell nucleus was labeled with DAPI. Mounting was conducted, and then the cell was detected under a confocal microscope at LSM710.
# [4] = LPS 50 μg/mL + anisodamine hydrobromide 10 μg/mL
# [5] = LPS 50 μg/mL + anisodamine hydrobromide 20 μg/mL
# [6] = LPS 50 μg/mL + anisodamine hydrobromide 10 or 20 μg/mL
structure (smiles),measurement,setting,value
"Br.CN1[C@H]2C[C@H](OC(=O)[C@H](CO)c3ccccc3)C[C@@H]1[C@@H](O)C2 [anisodamine hydrobromide, Anisodamine hydrobromide]",LPS-induced NO production relative to control group,hCMEC/D3 cell [1]; [4],1.2 times
same,LPS-induced NO level,hCMEC/D3 cell [1]; LPS 50 μg/mL + anisodamine hydrobromide 10 μg/mL (second mention),significantly reduced the LPS-induced NO level
same,cell proliferation,hCMEC/D3 cell [2]; anisodamine hydrobromide 20 μg/mL,significantly increased the cell proliferation
same,cell proliferation,"hCMEC/D3 cell [2]; anisodamine hydrobromide 20 μg/mL, listed as anisodamine",significantly improve the proliferation
same,cell proliferation,hCMEC/D3 cell [2]; anisodamine hydrobromide 80 μg/mL,significantly down-regulated the cell proliferation
same,cell proliferation,"hCMEC/D3 cell [2]; anisodamine hydrobromide 80 μg/mL, listed as anisodamine",significantly inhibit the proliferation
same,LPS-induced permeability relative to control group,hCMEC/D3 barrier; [4],2.7 times
same,LPS-induced permeability relative to control group,hCMEC/D3 barrier; [5],2.6 times
same,"permeability, anisodamine hydrobromide group vs control group",hCMEC/D3 barrier; [6],no significant difference
same,loss of cadherin and HS,[3]; [4],inhibit the loss of cadherin and HS
same,loss of cadherin and HS,[3]; [5],inhibit the loss of cadherin and HS
same,integrity and width of a cell junction,[3]; [6],restored the integrity and width of a cell junction
same,cadherin level and HS coverage rate,"[3]; compared with the control group and the 10 μg/mL anisodamine hydrobromide group (group not named, apparently 20 μg/mL)","increased slightly, but not significantly"
